The record followed here is PubChem BioAssay AID463074 (Broad Institute, 2010).

Activity calls are given as the source filed them.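 The calls were made as follows: active = AC50 no more than tenfold above the top dose tested, or full inhibition at every dose with a flat fit (cut at about 19 µM in these data); inconclusive = flat curve fit with inhibition between 30% and 70%, or poor fit; inactive = AC50 more than tenfold above the top dose tested.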 Where only a bound is given, the exact number is not on record here.

The test system of this test is HMLE_sh_eGFP viability, CellTiter-Glo luminescence, 72 h. Nature of the test: cytotoxicity in HMLE control line with eGFP shRNA, dose response, counter-screen for HMLE_sh_ECad selective toxicity project, cell-based, HMLE_sh_eGFP, luminescence (AID 463074).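 Also: counterscreen control line to flag general toxicity for the HMLE_sh_ECad screen; potency for loss of viability as luminescence drops below DMSO wells.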
Consider `C[C@@H]1CN([C@H](C)CO)C(=O)Cc2cc(NS(=O)(=O)c3ccc(Cl)cc3)ccc2O[C@H]1CN(C)Cc1ccc(C(F)(F)F)cc1`, for which the AC50 (as a rule, the concentration giving half of the maximal activity seen) was 3.18 µM. To `CCC1=Nc2cc(C(=O)NCc3cccnc3)ccc2Sc2ccc(C)cc21` belongs 0.816 µM. As to `CC(=O)c1ccc(-c2ccc([C@H]3[C@H]4C=CC[C@@H](C)[C@@H]4C(=O)N3Cc3ccccc3)c(F)c2)cc1`, the AC50 is 6.13 µM. For `CC(C)(c1ccccc1)c1ccc(OCCCN2CCNCC2)cc1`, the AC50 was 0.745 µM.

On to `c1ccc(CN2CCC(Nc3nc(-c4cccs4)nc4ccccc34)CC2)cc1`, for which the half-maximal activity concentration (AC50) is 6.8 µM. In the case of `O=C(O)CCN1C(=O)C(=C2CCCCCC2)SC1=S` it was > 19.5 µM (inactive); in that of `CN1/C(=C\C(=O)Nc2ccc(Br)cc2)C(C)(C)c2ccccc21`, 7.32 µM. Take `COc1ccc(/C=C/C(=O)c2ccc([N+](=O)[O-])o2)cc1OC`: the AC50 is 2.47 µM. In the case of `C/C(N)=C(/C#N)C(=O)COC(=O)c1cc(-c2ccc(C)cc2)nc2ccccc12` it was 15 µM; in that of `CCCS(=O)(=O)c1c(S(=O)(=O)CCC)c2c(C)cccn2c1C(=O)N/N=C/c1cc(O)cc(O)c1`, 1.72 µM. On to `CC(C(=O)O)N1C(=O)CSc2ncccc21` (stereo not given), for which the AC50 is > 19.5 µM (inactive). In the case of `Cc1ccccc1NC(=O)C(Cl)=C(Cl)Cl` it was 7.21 µM.

On to `Cn1c(/C(C#N)=C(\O)COc2ccc3ccccc3c2)nc2ccccc21`, for which the AC50 is 0.359 µM. To `NC(=O)CC(NC(=O)c1ccc(Br)cc1)c1ccc(N2CCCCCCC2)c([N+](=O)[O-])c1` (stereo not given) belongs 7.85 µM.

Regarding `NC(=O)c1sc(-c2ccsc2)cc1NS(=O)(=O)c1ccc(C(F)(F)F)cc1`, the AC50 is 16.1 µM. To `Clc1ccc(C(Cn2ccnc2)OCc2csc3c(Cl)cccc23)c(Cl)c1` (stereo not given) belongs 3.16 µM; to `COc1ccc([C@H]2Oc3cc(O)cc(O)c3C(=O)C2[C@@H]2C(=O)c3c(O)cc(O)cc3O[C@@H]2c2ccc(OC)cc2)cc1` (stereo not given in full), 10.6 µM; to `CC(C)(C)NC(=O)Cn1nnc(-c2ccc(OCc3c(F)cccc3Cl)cc2)n1`, 1.79 µM. In the case of `NC(=O)CC(NC(=O)c1ccc(Br)cc1)c1ccc(NCc2ccc(F)cc2)c([N+](=O)[O-])c1` (stereo not given) it was 4.61 µM; in that of `OC(COCC(F)(F)C(F)(F)C(F)(F)C(F)F)Cn1c2ccccc2c2ccccc21` (stereo not given), 6.63 µM. With `Cc1ccc(-c2csc(-c3c[nH]c4ccccc34)n2)c(C)c1`, the AC50 is 4.19 µM. On to `CCc1ccc2[nH]c(=O)c(C3C(C#N)=C(N)Oc4c3ccc3cccnc43)cc2c1` (stereo not given), for which the half-maximal activity concentration (AC50) is 8.92 µM. To `CC1(C)CC[C@@]2(C(=O)O)C(C1)C1=CCC3[C@@]4(C)CC[C@H](O)C(C)(C)C4CC[C@@]3(C)[C@]1(C)C[C@H]2O` (stereo not given in full) belongs 7.84 µM. To `CC(C)(C)c1nc(N2CCN(C(=O)c3ccco3)CC2)c2nnn(Cc3ccccc3Cl)c2n1` belongs 8.78 µM; to `CCCCCCCCNC(C)C(O)c1ccc(SC(C)C)cc1` (stereo not given), 3.83 µM; to `O=c1cc(N2CCCCC2)c(-c2ccccc2)nn1Cc1c(Cl)cccc1Cl`, 5.72 µM. To `CC(=NCc1cccc(Cl)c1)c1nc(-c2ccco2)oc1O` belongs 0.554 µM. As for `Cc1ccccc1CNc1ccc(C(CC(N)=O)NC(=O)c2ccc(Br)cc2)cc1[N+](=O)[O-]` (stereo not given), the AC50 is 3.96 µM. In the case of `CC(=O)Nc1sc(C)c(C)c1C(=O)OCC(=O)N(CC(C)C)c1c(N)n(Cc2ccccc2)c(=O)[nH]c1=O` it was 2.85 µM.

Take `COc1ccc(-n2sc3c(c2=S)-c2cc(OC)ccc2NC3(C)C)cc1`: the AC50 is 3.51 µM. On to `Cc1[nH]nc2c1C(c1ccc(-c3ccc(Cl)cc3)o1)C(C#N)=C(N)O2` (stereo not given), for which the AC50 is 7.25 µM. `Cc1ccc(-c2cc(-c3ccccc3C)[nH]n2)c(O)c1`: the AC50 is 8.64 µM.

In the case of `COc1cc(/C=N/N(c2ccccc2)c2ccccc2)ccc1O`, the AC50 is 6.34 µM. To `CCCC(=O)NC(=S)Nc1cccc(Cl)c1N1CCCC1` belongs 4.25 µM.

With `O=C1NC(=Nc2ccc(Cl)cc2)SC1Cc1cccc(Cl)c1Cl` (stereo not given), the AC50 is > 19.5 µM (inactive). In the case of `COc1cccc(NP(=O)(Oc2ccccc2)Oc2ccccc2)c1` it was 15.1 µM; in that of `COC(=O)Nc1nc2ccc(-c3n[nH]c(=O)c4ccccc34)cc2[nH]1`, 1.88 µM. Consider `C=C(Br)Cn1c(CCCC)nc2ccccc21`, for which the AC50 is 0.645 µM. On to `C/C(=N\Nc1ccccc1)c1c(O)n(-c2ccccc2)c(=O)[nH]c1=O`, for which the AC50 was 2.45 µM. In the case of `O=C(Nc1ccccc1)C1=C[C@@H](c2csc3ccccc23)C[C@@H](OCc2ccc(CO)cc2)O1` it was 4.11 µM. To `COc1ccc(-c2nc(NC(=O)c3cc(C(C)(C)C)nn3C)sc2C)cc1` belongs 14.2 µM; to `Cn1c2ccccc2c(=O)c2cc(C#Cc3ccccn3)ccc21`, > 19.5 µM (inactive); to `FC(F)(F)c1cc(CCN2C(=S)NC[C@@H]2CC2CCCCC2)cc(C(F)(F)F)c1`, 7.29 µM.

Take `CC1=CC(=O)C(C(C)C)=C/C1=C(\c1cc(C(C)C)c(OP(=O)(O)O)cc1C)c1ccccc1C(=O)O`: the AC50 was 3.6 µM.

For `FC(F)Oc1ccc(-c2csc(NNC3=NCCCCC3)n2)cc1`, the AC50 is 3.28 µM. To `Cc1nn(-c2ccc(F)cc2)c(Cl)c1/C=C1\C(=O)Nc2ccccc21` belongs 2.34 µM; to `Cn1c(-c2ccsc2)c(-c2cccs2)c2cc(-c3ccc4[nH]ccc4c3)ccc21`, > 19.5 µM (inactive). In the case of `COCCCn1c(SCc2cccc(C(F)(F)F)c2)nc2cc(OC)c(OC)cc2c1=N` it was 4.75 µM; in that of `COc1cccc(Nc2nc(-c3ccccc3)nc3ccccc23)c1`, 7.67 µM. To `CCCCNC(=O)c1ccc(Cn2c(=S)[nH]c3c([nH]c4ccc(OC)cc43)c2=O)cc1` belongs 1.38 µM. As to `Cc1sc(NC(=O)C2CCCCC2)c(C#N)c1-c1ccccc1`, the AC50 is > 19.5 µM (inactive). To `CN(C(=O)COC(=O)/C=C/c1cccc([N+](=O)[O-])c1)C1CCS(=O)(=O)C1` (stereo not given) belongs 4.61 µM; to `CC(CNC(=S)Nc1cc(F)cc(F)c1)CSc1ccc(Cl)cc1` (stereo not given), 6.55 µM; to `c1ccc(CN2CCN(c3nc(NCc4ccco4)c4ccccc4n3)CC2)cc1`, 4.22 µM. On to `Cc1csc(NC(=S)Nc2cccc(Cl)c2)n1`, for which the AC50 was 10.4 µM. To `O=C(Nc1cccc(Cl)c1)c1nc[nH]c1C(=O)NCCCNC(=O)c1[nH]cnc1C(=O)Nc1cccc(Cl)c1` belongs 5.33 µM. For `O=[N+]([O-])c1cccnc1N1CCC(c2cc(-c3cccc(C(F)(F)F)c3)n[nH]2)CC1`, the AC50 is 3.56 µM. In the case of `CC1(O)CC(c2ccc(Cl)cc2)=NN1C(=O)c1ccc([N+](=O)[O-])cc1` (stereo not given) it was 6.72 µM; in that of `CC(C)(C)c1cc(CSC(=S)NC2CCS(=O)(=O)C2)c(Br)c(C(C)(C)C)c1` (stereo not given), 3.8 µM; in that of `COc1ccc(C2NCCc3c2[nH]c2ccccc32)cc1CSc1nc2ccccc2s1` (stereo not given), 4.98 µM. In the case of `CC1CCCC(NC(=S)Nc2ccc(SC(F)F)cc2)C1C` (stereo not given) it was 6.34 µM; in that of `CC(=O)c1ccc(N2CCN(S(=O)(=O)c3cc(-c4cc(C)no4)ccc3C(C)C)CC2)cc1`, 0.205 µM. To `CCc1cc2cc(C)cc(C)c2nc1SCC(=O)N1CCN(C(=O)c2ccco2)CC1` belongs 13.4 µM; to `C=CCn1cccc(/C=C/C(=O)c2ccc(C(C)(C)C)cc2)c1=S`, 6.19 µM. Turning to `O=C(CSc1ncnc2nc[nH]c12)c1ccc(Cl)cc1`, the AC50 is 6.23 µM. To `CN1CCN(/N=C/c2ccc(N(c3ccccc3)c3ccccc3)cc2)CC1` belongs 6.89 µM; to `Cc1ccc2nc(NC(=O)c3cccc(-c4cc5ccccc5oc4=O)c3)sc2c1`, > 19.5 µM (inactive). On to `CC(C)C(=O)NC(c1ccccc1)c1cc([N+](=O)[O-])c2cccnc2c1O` (stereo not given), for which the AC50 is 5.91 µM. In the case of `Cc1ccc(C)c(NC(=S)NC(NC(=O)Cc2cccc3ccccc23)C(Cl)(Cl)Cl)c1` (stereo not given) it was 1.97 µM. Consider `COCCN(C(=O)C(C)C)c1nnc(-c2ccc(C(C)(C)C)cc2)s1`, for which the AC50 was 3.06 µM. As for `COc1cc(Br)cc(/C=C/c2ccc3cccc(O)c3n2)c1O`, the AC50 is 3.91 µM. Regarding `Cc1noc(C)c1COc1cccc(C(=O)Nc2ccc(OCc3ccccc3)cc2)c1`, the half-maximal activity concentration (AC50) was 15.5 µM. To `COc1cc(/C=C/c2[nH]c(=O)[nH]c(=O)c2[N+](=O)[O-])ccc1OCCC(C)C` belongs 7.14 µM; to `CN(C)CCCn1c(=S)[nH]c2sc3c(c2c1=O)CCCC3`, > 19.5 µM (inactive); to `C[C@@H](CSc1ccc(Br)cc1)CN1CC[C@H](C(C)(C)C)CCC1=O`, 3.35 µM.

For `COc1ccccc1-c1cc(C(F)(F)F)nc(S(C)(=O)=O)n1`, the AC50 is 6.13 µM. In the case of `CC(C)(C)c1cc(Cl)ccc1OCCOCCN1CCCC1` it was 6.54 µM; in that of `O=C(/C=C/c1ccc2c(c1)OCO2)c1c(O)n(CCC2=CCCCC2)c(=O)[nH]c1=O`, 1.63 µM; in that of `OC(CN1CCN(c2ccccn2)CC1)Cn1c2ccc(Cl)cc2c2cc(Cl)ccc21` (stereo not given), 6.78 µM. To `CN(CC(=O)Nc1cccc(F)c1)C(=O)c1cn(-c2ccccc2)nc1-c1ccc(Cl)cc1` belongs 3.85 µM; to `COc1ccccc1NC(=O)Nc1ccc(-n2ccc(C(F)(F)F)n2)cc1`, 10.3 µM; to `CNC(=O)NC(=O)C(C)OC(=O)c1oc2ccccc2c1CSc1ccc(Cl)cc1` (stereo not given), 19.3 µM. In the case of `COc1ccc(-n2c(Cc3cccn3C)nnc2SCC(=O)Nc2cccc(Cl)c2)cc1` it was > 19.5 µM (inactive). In the case of `CC(=O)c1ccc(NC(=O)COC(=O)c2c3c(nc4ccccc24)/C(=C\c2cccs2)CCC3)cc1`, the AC50 was 4.54 µM. To `S=c1[nH]nc(-c2cc(-c3ccccc3)n[nH]2)n1/N=C/C(Br)=C/c1ccccc1` belongs 1.2 µM; to `CCC/C(=C1/c2ccccc2C(=O)N1c1ccccc1)c1ccc2c(c1)OCCO2`, 4.08 µM. In the case of `CCCc1nc2ccccc2c(C(=O)OCC(=O)N2CCc3ccccc32)c1CC` it was 3.97 µM.

With `O=C1NC(=O)N(Cc2ccccc2)C(=O)/C1=C\C=C\c1ccco1`, the half-maximal activity concentration (AC50) is 1.93 µM. In the case of `CCOc1cc(/C=C2/SC(=S)N(Cc3ccccc3)C2=O)ccc1O` it was 3.76 µM; in that of `Cc1ccc(C(C)C)c(OCc2nn(CC(=O)c3ccc(OC(F)F)cc3)c3[n+]2CCCCC3)c1`, 4.17 µM.
